This note sets out measurements from patent US20240398973A1, “ENGINEERED ANTIBODY COMPOUNDS AND CONJUGATES THEREOF” (Eli Lilly and Company, priority 2017, published 2024).

The subject of experiment [1] is primary human polymorphonuclear neutrophil (PMN). In words: PMN chemotaxis (transwell, modified Boyden chamber). Format: cell-based. To be noted: for Relative Migration (PMN migration): relative to 10 nM fMLF (Table 4a). The method, then:
Chemotaxis is measured by observing primary human polymorphonuclear neutrophil (PMN) migration across transwell membranes (Corning #3415) towards antibody conjugates in a modified Boyden chamber assay. Approximately 2-4×10^5 cells from neutrophil-enriched preparations are seeded in upper transwell chambers on membranes with 3.0 um pores. The lower transwell chambers contain solutions of buffer alone and fMLF (N-formyl-Met-Leu-Phe peptide as positive control) and experimental antibody bioconjugates. […] Cell numbers are determined using standard curves. All data are transformed to percent relative to the maximal fMLF response for each individual experiment.

Experiment [2] deals with human primary PMNs. Put plainly: PMN reactive oxygen species (ROS) production, luminol-amplified chemiluminescence. Format: cell-based. Particulars: for PMN ROS production: relative to 1000 nM fMLF; for ROS Production by PMNs: relative to 10 uM fMLF, AUC 5 minutes (Table 8a).
Protocol: Production of ROS by human primary PMNs is measured using luminol-amplified chemiluminescence. Following isolation, PMNs are suspended at 1×10^6 cells/ml in HBSS containing calcium and magnesium (Gibco #14025-092) supplemented with 0.25% human serum albumin (Gemini Bio producst #800-124) and 50 uM Luminol (SigmaAldrich #123072-2.5G). 100 μl of cell suspension (1×10^5 total cells) is then distributed into each well of a 96-well plate suitable for fluorescence measurement (Greiner #655098) and temperature equilibrated to 37° C. for 5 minutes. Following equilibration, 10× solution of antibody conjugate is applied to the wells, achieving a 1× final concentration.
Immediately after the addition of antibody conjugate, chemiluminescence signal is recorded in a luminometer maintained at 37° C. with 0.01 seconds dwell time per well, 20 seconds total time between sequential plate readings and 45 minutes total run time (PerkinElmer EnVision Multilabel Plate Reader).
The target in experiment [3] is formyl peptide receptor 1 (FPR1) on primary human polymorphonuclear neutrophils (human) (UniProt P21462). Put plainly: cell-based or functional assay.
Experiment [4] shares this target. In words: cell-based or functional assay. This is another data set of the same source.

Where no end group is shown, it is not given here.

Regarding “Emibetuzumab-G4(PAA)-UC-HC-124C-378C: unconjugated emibetuzumab IgG4(PAA) with HC 124C and 378C; HC SEQ ID NO:3, LC SEQ ID NO:5”, the “Relative Migration (PMN migration towards antibody conjugates)” value in experiment [1] (0.78 nM, relative to 3.12 nM fMLF (Table 6)) is on record as 5.48%; in experiment [1] (1 nM, relative to 30 nM fMLF (Table 7)), 11.30%; in experiment [1] (1.56 nM, relative to 3.12 nM fMLF (Table 6)), 8.05%; in experiment [1] (3 nM, relative to 30 nM fMLF (Table 7)) it was 12.40%; in experiment [1] (3.12 nM, relative to 3.12 nM fMLF (Table 6)), 7.24%; in experiment [1] (6.25 nM, relative to 3.12 nM fMLF (Table 6)), 6.36%. The “Relative Migration (PMN migration towards antibody conjugates)” value in experiment [1] (10 nM, relative to 30 nM fMLF (Table 7)) is recorded as 12.27%; in experiment [1] (12.5 nM, relative to 3.12 nM fMLF (Table 6)) it was 4.11%; in experiment [1] (25 nM, relative to 3.12 nM fMLF (Table 6)), 5.70%; in experiment [1] (30 nM, relative to 30 nM fMLF (Table 7)) it was 14.66%; in experiment [1] (50 nM, relative to 3.12 nM fMLF (Table 6)) it was 12.02%; in experiment [1] (100 nM, relative to 3.12 nM fMLF (Table 6)) it was 6.67%. Moreover, the “Relative Migration (PMN migration towards antibody conjugates)” value in experiment [1] (100 nM, relative to 30 nM fMLF (Table 7)) amounted to 14.89%; in experiment [1] (300 nM, relative to 30 nM fMLF (Table 7)), 17.95%. Besides, the “PMN migration (in words)” value in experiment [1] (relative to conjugated antibodies) is “did not induce PMN migration”. For the same substance, the “PMN ROS production” value was 25.1 percentage in experiment [2] (1 nM, AUC 5 minutes (Table 10)); 0.5 percentage in experiment [2] (1 nM, AUC 5 minutes (Table 17)); 25.5 percentage in experiment [2] (2 nM, AUC 5 minutes (Table 10)); 0.6 percentage in experiment [2] (3 nM, AUC 5 minutes (Table 17)); 25 percentage in experiment [2] (3.9 nM, AUC 5 minutes (Table 10)); 25.6 percentage in experiment [2] (7.8 nM, AUC 5 minutes (Table 10)). In addition, the “PMN ROS production” value is given as 0.5 percentage in experiment [2] (12 nM, AUC 5 minutes (Table 17)); 24.9 percentage in experiment [2] (15.6 nM, AUC 5 minutes (Table 10)); 0.6 percentage in experiment [2] (30 nM, AUC 5 minutes (Table 17)); 25.3 percentage in experiment [2] (31.3 nM, AUC 5 minutes (Table 10)); 24.5 percentage in experiment [2] (62.5 nM, AUC 5 minutes (Table 10)); 0.5 percentage in experiment [2] (100 nM, AUC 5 minutes (Table 17)). Further, the “PMN ROS production” value in experiment [2] (125 nM, AUC 5 minutes (Table 10)) came out at 24.6 percentage; in experiment [2] (250 nM, AUC 5 minutes (Table 10)), 24.9 percentage; in experiment [2] (300 nM, AUC 5 minutes (Table 17)), 0.7 percentage; in experiment [2] (500 nM, AUC 5 minutes (Table 10)) it was 23 percentage; in experiment [2] (1000 nM, AUC 5 minutes (Table 10)), 32.2 percentage; in experiment [2] (1000 nM, AUC 5 minutes (Table 17)), 0.5 percentage.
“Emibetuzumab-G4(PAA)-fMLFK-HC-124C-162C-378C (antibody)”: in experiment [3], the PMN ROS production at 1 nM (percent relative to 1000 nM fMLF) was found to be 1.2%, the PMN ROS production at 3 nM (percent relative to 1000 nM fMLF) stood at 6.1%, the PMN ROS production at 12 nM (percent relative to 1000 nM fMLF) was found to be 17.8% and the PMN ROS production at 30 nM (percent relative to 1000 nM fMLF) came to 38.4%. In addition, in experiment [3], the PMN ROS production at 100 nM (percent relative to 1000 nM fMLF) amounted to 52.7%, the PMN ROS production at 300 nM (percent relative to 1000 nM fMLF) turned out to be 54.2% and the PMN ROS production at 1000 nM (percent relative to 1000 nM fMLF) was determined as 42.3%.
In the case of “Emibetuzumab-G4-fMLFK-HC-124C-157C-378C (antibody)”, in experiment [3], the PMN ROS production at 1 nM (percent relative to 1000 nM fMLF) came out at 1.7%, the PMN ROS production at 3 nM (percent relative to 1000 nM fMLF) is 11.9%, the PMN ROS production at 12 nM (percent relative to 1000 nM fMLF) came out at 26.9% and the PMN ROS production at 30 nM (percent relative to 1000 nM fMLF) came out at 50%. Further, in experiment [3], the PMN ROS production at 100 nM (percent relative to 1000 nM fMLF) amounted to 63.6%, the PMN ROS production at 300 nM (percent relative to 1000 nM fMLF) amounted to 58.7% and the PMN ROS production at 1000 nM (percent relative to 1000 nM fMLF) stood at 51.8%.
Regarding “H-Met-Leu-Phe-Lys (Mal-PEG12-OH (H-MLFK; not fully specified (residue 4)) [Peptide-'844]”, the “concentration at which PMN migration is maximally induced” value in experiment [1] was 1 µM. For the same substance, the “Relative Migration (PMN migration)” value is recorded as 1.4% in experiment [1] (1 pM); 4.1% in experiment [1] (10 pM); 0.4% in experiment [1] (100 pM); 11.1% in experiment [1] (1 nM); 2.9% in experiment [1] (10 nM); 20.4% in experiment [1] (100 nM). Further, the entries for the “Relative Migration (PMN migration)” value in experiment [1] (1 uM) and in experiment [1] (10 uM) were 114.2% and 110.4%, respectively. Also, the “fold less potent at inducing PMN migration than Peptide-'183” value in experiment [1] (dose response differences) worked out at 1000 fold. For the same substance, the “ROS Production by PMNs” value in experiment [2] (1 pM) is recorded as 7.4 percentage; in experiment [2] (10 pM) it was 7.5 percentage; in experiment [2] (100 pM), 7.5 percentage; in experiment [2] (1 nM), 8.4 percentage; in experiment [2] (10 nM), 7.8 percentage; in experiment [2] (100 nM), 8.2 percentage. Further, the “ROS Production by PMNs” value is 8.7 percentage in experiment [2] (1 μM) and 23.5 percentage in experiment [2] (10 μM).
In experiment [4], “Peptide-'183, formyl-Met-Leu-Phe-Lys(Mal-PEG12)-OH with hydrolyzed maleimido group (unconjugated peptide)” registered an EC50 of PMN ROS production of 0.103 µM, a PMN ROS production at 1 pM (percent relative to 10 uM fMLF) of 6.9%, a PMN ROS production at 10 pM (percent relative to 10 uM fMLF) of 7.4% and a PMN ROS production at 100 pM (percent relative to 10 uM fMLF) of 7.5%. Moreover, in experiment [4], the PMN ROS production at 1 nM (percent relative to 10 uM fMLF) turned out to be 8.8%, the PMN ROS production at 10 nM (percent relative to 3000 nM fMLF) amounted to 3.6%, the PMN ROS production at 10 nM (percent relative to 10 uM fMLF) was 31.3% and the PMN ROS production at 30 nM (percent relative to 3000 nM fMLF) amounted to 12.2%. Further, in experiment [4], the PMN ROS production at 100 nM (percent relative to 3000 nM fMLF) came to 49.9%, the PMN ROS production at 100 nM (percent relative to 10 uM fMLF) came to 76.6%, the PMN ROS production at 300 nM (percent relative to 3000 nM fMLF) worked out at 76.2% and the PMN ROS production at 1 µM (percent relative to 10 uM fMLF) was determined as 94%. Also, in experiment [4], the PMN ROS production at 1000 nM (percent relative to 3000 nM fMLF) came out at 94.3%, the PMN ROS production at 3000 nM (percent relative to 3000 nM fMLF) came out at 99.5%, the PMN ROS production at 10 µM (percent relative to 10 uM fMLF) is 107% and the PMN ROS production at 10000 nM (percent relative to 3000 nM fMLF) was 89.1%. Besides, in experiment [4], the PMN migration at 1 nM (percent relative to 100 nM fMLF) came out at 150%, the PMN migration at 3 nM (percent relative to 100 nM fMLF) is 167%, the PMN migration at 10 nM (percent relative to 100 nM fMLF) stood at 145% and the PMN migration at 30 nM (percent relative to 100 nM fMLF) was 118%. In experiment [4], this substance came in with a PMN migration at 100 nM (percent relative to 100 nM fMLF) of 84.2%, a PMN migration at 300 nM (percent relative to 100 nM fMLF) of 50.4% and a PMN migration at 1000 nM (percent relative to 100 nM fMLF) of 33.6%.
“Tmab-G1-fMIFL-HC124C-378C-(PEG3) (antibody)”: the EC50 of PMN ROS production in experiment [4] was determined as 0.0313 µM.
Still for that read-out and setting: next, “Tmab-G1-fMIFL-HC124C-378C-(PEG6) (antibody)”: 0.0136 µM; “Tmab-G1-fMIFL-HC124C-378C-(PEG12) (antibody)”: 0.0364 µM.
